Laboratory results from patent US20140079836A1, “METHODS AND COMPOSITIONS FOR ALTERING HEALTH, WELLBEING, AND LIFESPAN” (LifeSpan Extension, LLC, priority 2008, published 2014).
Several values for one entry are separate records, joined by “and”; a condition that tells them apart may be missing. Equal values may be shown once.

Tested on: genes involved in longevity (Array 1)
Assay: Custom RT-PCR microarray (Array 1) gene expression in skin fibroblasts, UVB/UVA1
Format: cell-based, human
Procedure: Seeding of cells: On Day 1, each cell culture was seeded into 6 well cluster dishes at ˜1.5×10^5 cells in 4 mls medium per well. Three wells were seeded per test condition or control.
Experimental phase: On Day 3, wells were washed 1× with 2 mls medium, fed back 2 mls medium without fetal bovine serum and preincubated for 30-60 minutes before challenge with test or control conditions. After the preincubation, medium was aspirated from the wells and 2.5 mls of test or control condition in medium with 1% fetal bovine serum was pipetted into the appropriate wells.
(3) UVA1, UVB exposed and unexposed cells without test condition were used as controls. The experimental phase ended at 24 hours post UV exposure. Cells from each test and control parameter were then prepped for RNA isolation as described below.
UVB/UVA1 exposure: Cells exposed to UV received 200 mJ/cm^2 UVB/1 MED UVA1 using Thermo Oriel solar simulator model SP66923-3056. Cells were exposed from the bottom of the culture dish. The UV dose delivered to the cells was adjusted for interference from the plastic in the culture dish.
Preparation of RNA: The RNA was isolated using the Qiagen RNEasy Plus Mini Kit according to the manufacturer's protocol which can be found on the World Wilde Web at qiagen.com/literature/Defaultaspx?Term=&Language=EN&LiteratureType=4& ProductCategory=10162. The RNA was quantified and examined for purity using the 260/280 nm read method in a μ Quant spectrophotometer before use in the array.
Creation and Performance of a Custom Microarray (“Array 1”): Through the Custom Array design service of Superarray Bioscience Corporation, a 96 well RT-PCR microarray (“Array 1”) was developed to illustrate genetic responses in cells treated as above for specific genes involved in longevity as well as the relevant quality controls. The array was performed in compliance with manufacturer's guidelines and by recommended manufacturer's protocol as can be found on the World Wilde Web at superarray.com/Manual/perarrayplate.pdf
(§1) Custom Microarray Results: The results from the microarrays were determined using the delta CT method which uses comparisons of control genes and threshold cycles of genes of interest to generate relative expression values. The full set of experimental conditions was cross referenced and the data is provided herewith in DATA TABLE 3.
Preparation of RNA: The RNA was isolated using the Qiagen RNEasy Plus Mini Kit according to the manufacturer's protocol which can be found on the World Wide Web at qiagen.com/literature/Default. aspx?Term=&Language=EN&LiteratureType=4&ProductCategory=10162.
The RNA was quantified and examined for purity using the 260/280 nm read method in a μ Quant spectrophotometer before use in the array.
Creation and Performance of the Custom Microarray: Through the Custom Array design service of Superarray Bioscience Corporation, a 96 well RT-PCR Microarray was developed to illustrate genetic responses in cells treated as above for specific genes involved in longevity as well as the relevant quality controls. The array was performed in compliance with manufacturer's guidelines and by recommended manufacturer's protocol as can be found on the World Wide Web at superarray.com/Manual/perarrayplate.pdf.
as §1, with “4.” for “3.”
as §1, with “5. […]” for “3.”

[1] = donor four cell line, UVB, agent 4 hr incubation
[2] = donor four cell line, UVB, agent continuous incubation
[3] = donor three idebenone + UVB 4 hr Incubation
[4] = donor three idebenone + UVB Continuous Incubation
[5] = donor three idebenone + UVB vs. Green tea + UVB 4 hr Incubation
[6] = donor three vs. donor two idebenone + UVB 4 hr Incubation
[7] = donor three vs. donor two idebenone + UVB Continuous Incubation

COC1=C(OC)C(=O)C(CCCCCCCCCCO)=C(C)C1=O [Idebenone, 6-(10-hydroxydecyl)-2,3-dimethoxy-5-methyl-1,4-benzoquin-one]
IFI44 expression [1]: 2.63 | NADSYN1 expression [1]: 2.21 | NFKB1 expression [1]: 3.24 | PARP1 Expression [1]: 4.27 | TERT expression [1]: 8.54 | IFI44 expression [2]: 2.98 | TERT expression [2]: 4.36 | TERT expression (donor one cell line, UVB, agent continuous incubation): 8.50 | ACE expression fold change [3]: 2.29 | ACTB expression fold change [3]: −2.01 | APOE expression fold change [3]: −1.32 | BAX expression fold change [3]: 1.41 | BCL2 expression fold change [3]: 4.13 | CASP2 expression fold change [3]: 1.31 | CASP9 expression fold change [3]: 2.06 | CCL4L1 expression fold change [3]: 9.82 | CLK1 expression fold change [3]: 1.41 | COX1 expression fold change [3]: −1.11 | CREBBP expression fold change [3]: −1.32 | CYP19A1 expression fold change [3]: 6.94 | DDC expression fold change [3]: 4.74 | GAPDH expression fold change [3]: −1.04 | GH1 expression fold change [3]: 3.35 | HIGX1A fold change [3]: 1.93 | HLA-DRA expression fold change [3]: 4.27 | HPRT1 expression fold change [3]: 3.47 | HSPA1A expression fold change [3]: 1.68 | HSPA1B expression fold change [3]: 1.99 | HSPA1L expression fold change [3]: −1.42 | IFI44 expression fold change [3]: 2.63 | IGF1 expression fold change [3]: 4.13 | IGF2 expression fold change [3]: −1.24 | IL1A expression fold change [3]: 2.54 | IL6 expression fold change [3]: 1.27 | IL10 expression fold change [3]: 1.46 | KRAS expression fold change [3]: 1.27 | MAPK14 expression fold change [3]: 1.46 | NADSYN1 expression fold change [3]: 2.21 | NFKB1 expression fold change [3]: 3.24 | NOS2A expression fold change [3]: 16.51 | PARP1 expression fold change [3]: 4.27 | PARP2 expression fold change [3]: 3.72 | PPARG expression fold change [3]: 1.99 | PPC fold change [3]: 1.07 and 1.23 | PTGS2 expression fold change [3]: 2.63 | RTC fold change [3]: 3.13 and 4.74 | SHC1 expression fold change [3]: 1.19 | SIRT1 expression fold change [3]: 1.41 | SOD1 expression fold change [3]: 1.41 | SOD2 expression fold change [3]: 1.07 | TEP1 expression fold change [3]: 1.23 | TERT expression fold change [3]: 8.54 | TNF expression fold change [3]: −1.19 | TP53 expression fold change [3]: −1.15 | ACE expression fold change [4]: 2.34 | ACTB expression fold change [4]: −3.93 | APOE expression fold change [4]: 1.49 | BAX expression fold change [4]: 2.26 | BCL2 expression fold change [4]: 7.09 | CASP2 expression fold change [4]: 1.09 | CASP9 expression fold change [4]: 5.19 | CCL4L1 expression fold change [4]: 10.02 | CLK1 expression fold change [4]: 1.71 | COX1 expression fold change [4]: 1.05 | CREBBP expression fold change [4]: −1.21 | CYP19A1 expression fold change [4]: 5.56 | DDC expression fold change [4]: 4.84 | GAPDH expression fold change [4]: −1.83 | GH1 expression fold change [4]: 2.18 | HIGX1A fold change [4]: 1.71 | HLA-DRA expression fold change [4]: 3.93 | HPRT1 expression fold change [4]: 1.83 | HSPA1A expression fold change [4]: 1.34 | HSPA1B expression fold change [4]: 1.71 | HSPA1L expression fold change [4]: −5.37 | IFI44 expression fold change [4]: 2.98 | IGF1 expression fold change [4]: 3.42 | IGF2 expression fold change [4]: −1.09 | IL1A expression fold change [4]: 1.97 | IL6 expression fold change [4]: −1.83 | IL10 expression fold change [4]: 1.13 | KRAS expression fold change [4]: 1.90 | MAPK14 expression fold change [4]: 1.65 | NADSYN1 expression fold change [4]: 1.44 | NFKB1 expression fold change [4]: 2.34 | NOS2A expression fold change [4]: 3.80 | PARP1 expression fold change [4]: 1.65 | PARP2 expression fold change [4]: 3.42 | PPARG expression fold change [4]: 3.19 | PPC fold change [4]: 1.25 and 1.21 | PTGS2 expression fold change [4]: 1.83 | SHC1 expression fold change [4]: −1.49 | SIRT1 expression fold change [4]: 1.77 | SOD1 expression fold change [4]: −1.71 | SOD2 expression fold change [4]: 1.17 | TEP1 expression fold change [4]: 1.13 | TERT expression fold change [4]: 4.36 | TNF expression fold change [4]: −1.09 | TP53 expression fold change [4]: 1.21 | ACE expression fold change [5]: −1.11 | ACTB expression fold change [5]: −1.57 | APOE expression fold change [5]: 1.41 | BAX expression fold change [5]: −2.23 | BCL2 expression fold change [5]: −1.15 | CASP2 expression fold change [5]: −2.47 | CASP9 expression fold change [5]: −1.94 | CCL4L1 expression fold change [5]: 9.48 | CLK1 expression fold change [5]: −1.11 | COX1 expression fold change [5]: −1.81 | CREBBP expression fold change [5]: −1.00 | CYP19A1 expression fold change [5]: 9.48 | DDC expression fold change [5]: 42.08 | GAPDH expression fold change [5]: −1.57 | GH1 expression fold change [5]: 16.51 | HIGX1A fold change [5]: 17.09 | HLA-DRA expression fold change [5]: 18.96 | HPRT1 expression fold change [5]: 1.41 | HSPA1A expression fold change [5]: −1.87 | HSPA1B expression fold change [5]: −2.08 | HSPA1L expression fold change [5]: 1.80 | IFI44 expression fold change [5]: −1.28 | IGF1 expression fold change [5]: 8.85 | IGF2 expression fold change [5]: −1.15 | IL1A expression fold change [5]: 7.70 | IL6 expression fold change [5]: −1.04 | IL10 expression fold change [5]: 4.74 | KRAS expression fold change [5]: −1.69 | MAPK14 expression fold change [5]: −1.63 | NADSYN1 expression fold change [5]: −1.63 | NFKB1 expression fold change [5]: −1.04 | NOS2A expression fold change [5]: 34.18 | PARP1 expression fold change [5]: −1.57 | PARP2 expression fold change [5]: 7.44 | PPARG expression fold change [5]: 1.74 | PTGS2 expression fold change [5]: 2.14 | SHC1 expression fold change [5]: −1.11 | SIRT1 expression fold change [5]: −1.15 | SOD1 expression fold change [5]: −1.32 | SOD2 expression fold change [5]: −1.24 | TEP1 expression fold change [5]: −1.00 | TERT expression fold change [5]: 7.97 | TNF expression fold change [5]: 7.44 | TP53 expression fold change [5]: −1.32 | ACE expression fold change [6]: 1.16 | ACTB expression fold change [6]: 1.43 | APOE expression fold change [6]: −1.06 | BAX expression fold change [6]: 1.95 | BCL2 expression fold change [6]: 1.76 | CASP2 expression fold change [6]: 1.33 | CASP9 expression fold change [6]: 1.58 | CCL4L1 expression fold change [6]: 1.08 | CLK1 expression fold change [6]: −1.22 | COX1 expression fold change [6]: 1.12 | CREBBP expression fold change [6]: 1.70 | CYP19A1 expression fold change [6]: 1.01 | DDC expression fold change [6]: 1.08 | GAPDH expression fold change [6]: 1.16 | GH1 expression fold change [6]: −1.06 | HIGX1A fold change [6]: −1.50 | HLA-DRA expression fold change [6]: 1.38 | HPRT1 expression fold change [6]: 1.38 | HSPA1A expression fold change [6]: 2.16 | HSPA1B expression fold change [6]: 2.32 | HSPA1L expression fold change [6]: −1.14 | IFI44 expression fold change [6]: 1.53 | IGF1 expression fold change [6]: −1.79 | IGF2 expression fold change [6]: −1.03 | IL1A expression fold change [6]: −1.40 | IL6 expression fold change [6]: −6.01 | IL10 expression fold change [6]: 1.76 | KRAS expression fold change [6]: 1.76 | MAPK14 expression fold change [6]: 1.48 | NADSYN1 expression fold change [6]: 1.08 | NFKB1 expression fold change [6]: 1.01 | NOS2A expression fold change [6]: −1.56 | PARP1 expression fold change [6]: 2.32 | PARP2 expression fold change [6]: 1.16 | PPARG expression fold change [6]: 1.29 | PTGS2 expression fold change [6]: 2.95 | SHC1 expression fold change [6]: 1.20 | SIRT1 expression fold change [6]: 1.53 | SOD1 expression fold change [6]: 1.24 | SOD2 expression fold change [6]: −1.35 | TEP1 expression fold change [6]: 1.76 | TERT expression fold change [6]: −1.14 | TNF expression fold change [6]: 1.95 | TP53 expression fold change [6]: −1.31 | ACE expression fold change [7]: 1.40 | ACTB expression fold change [7]: 4.88 | APOE expression fold change [7]: −2.48 | BAX expression fold change [7]: −1.64 | BCL2 expression fold change [7]: −1.53 | CASP2 expression fold change [7]: −1.38 | CASP9 expression fold change [7]: −1.88 | CCL4L1 expression fold change [7]: −2.09 | CLK1 expression fold change [7]: −1.04 | COX1 expression fold change [7]: −2.32 | CREBBP expression fold change [7]: 1.14 | CYP19A1 expression fold change [7]: −2.48 | DDC expression fold change [7]: −1.58 | GAPDH expression fold change [7]: 2.13 | GH1 expression fold change [7]: 1.40 | HIGX1A fold change [7]: −2.16 | HLA-DRA expression fold change [7]: 1.31 | HPRT1 expression fold change [7]: 2.20
